# Measured values: patent publication US5242915A, “Formulation useful for the inhibition of massive release of cerebral glutamate” (Shionogi & Co., Ltd., priority 1991, dated 1993)
# “Also recorded” adds a separate entry of the source. Where two headings read alike, the source gives them in different places.
# Legend:
# [1] = NMDA channel antagonist; cited from earlier work
# DBA/2 Mouse = experiment: Ultrasonically (sound)-induced convulsion in DBA/2 mouse; type: in vivo, mouse (DBA/2); settings: for anticonvulsive effect (general statement): FIG. 3 and Table 1; for ED50: Mus musculus, one hour before ultrasonic treatment (70-90 db, 1 min), probit method, read-out: ED50 (anti-convulsant effect); for anti-convulsant effect, in words: sound/ultrasonically induced convulsion
# Text: Animal: Ten mice consisting of five each of male and female DBA/2 mice (weighing from 7 to 11 g) bred at the Aburahi Laboratories (Shionogi) at three weeks of age were used in a group.
# One hour before the ultrasonic treatment, each mouse of test group orally received S-312-d as a solution in polyethylene glycol 400. To each mouse of control groups was orally administered either of Nicardipine, as a solution in polyethylene glycol 400, S-312-1, Nimodipine or Flunarizine, as a suspension in gum arabic. Convulsion was induced in mouse by an ultrasonic treatment (70-90 db, 1 min) and the number of tetanic death was observed. ED50 value of anti-convulsant effect of each compound was calculated by probit method using the […] as an indication.
# vascular smooth muscle = settings: background statement; cited from earlier work
# [2] = cited from earlier work; for antihypertensive, peripheral, cerebral and coronary vasodilating actions: background statement
# [3] = system: massive release of cerebral glutamate in hippocampal CAI region; experiment: Effect on the ischemic release of glutamate in hippocampal CAI region (BCAO, microdialysis); type: in vivo, rat (SHRSP, stroke-prone spontaneously Hypertensive Rats); settings: intraduodenal, 40 min before BCAO, S-312-d 0.3 mg/kg; for inhibition of the massive release of glutamate during BCAO: nilvadipine 3 mg/kg, nimodipine 3 mg/kg, FIG. 2
# Text: Thus, an experimental cerebral ischemia was caused in SHRSPs by the occlusion of both common carotid arteries (hereinafter, referred to as BCAO). During the ischemic period, a massive release of glutamate in hippocampal CAI region was observed (see, FIG. 1).
# Reference compound: nilvadipine, and nimodipine Animal: Five male SHRSP bred at the Aburahi Laboratories (Shionogi) at ten to twelve weeks of age were used in a group. Animals were fed CA-1 (Nihon Clea) and tap water ad libitum.
# Hippocampus CAI region was made ischemia by the occlusion of both common carotid arteries (BCAO) into rats as follows:
# Rats were anesthetized with halothane (3%) and the cervical region proximal to abdomen was incised to expose the common carotid arteries. Both arteries were occluded with nylon threads with each end exposed at the back of the neck through either of two holes of a tube (double lumen PE tube, Natsume Seisakusho, & Co.). Occlusion was induced in the both common carotid arteries by pulling strongly each exposed end of threads. BCAO was stopped by gradually pulling down the each end of threads passed under arteries proximal to abdomen. During the ischemic period, the halothane inhalation was stopped.
# The determination of the regional cerebral blood flow was conducted using a laser doppler tissue flow meter (LFA-2, Biomedical Science, Japan) with a needle-type sensor (450 μm in diameter) inserted into the hippocampal CA1 region opposite to the site where a microdialysis probe had been fixed. The blood flow during BCAO was estimated as almost negligible on the assumption that the blood flow after the death of rat is "0".
# S-312-d (0.3 mg/kg), nilvadipine (3 mg/kg), or nimodipine (3 mg/kg) was dissolved into polyethylene glycol 400 and administered into duodenum in each rat at 40 min before BCAO.
# Under the anesthesia with halothane (1-2%), rats were fixed on cerebral stereotaxic frame and equipped with an artificial respirator (1 cc/100 gbw×60 times/min), while being maintained at 37 ° C by settling a heating pad beneath the lower abdominal region. A hole was drilled on the exposed skull and a microdialysis probe (CMA/10, membrane length 2 mm, BAS, Sweden) was inserted gently. Measurement was started after 3 hr from the surgery in order to avoid the influence of tissue damage. The probe was perfused with Ringer's solution at a flow rate of 2 μl/min by a microdialysis pump (CMA/100, BAS, Sweden). The dialysates were collected for each 5-min perfusion and pooled. Sampling was started at 10 min before the BCAO. BCAO was continued for 20 min when it was stopped by loosening […] threads to allow cerebral circulation. The sampling was continued for 20 min after the discontinuation of the BCAO. Samples were then subjected to quantitative analysis for glutamate without further treatments.
# The concentration of glutamate was determined by HPLC substantial in accordance with the HPLC-ECD method of Donzanti et al. (Life Sci. 43: 913 (1988)) The glutamate-containing sample was reacted with o-phthlaldehyde/β-mercaptoethanol solution for 2 min and injected into a reverse-phase column and eluted under the following conditions. The eluate was then analyzed for the presence of glutamate by an electrochemical measurement of oxidation-reduction current.
# Column: C 18, particle size: 3 μm, 8 cm×4.6 mm
# Mobile phase: a mixture of 0.1M phosphate buffer (pH 6.4), 0.13 mM Na2 EDTA, and 22% MeOH
# [4] = system: pyramidal neurons of the hippocampal CAI region; experiment: Delayed neuronal death during cerebral ischemia (density of living pyramidal neurons); type: in vivo, rat (SHRSP); settings: for Density of Neurons, animals with 40-80 n/mm / Density of Neurons, animals with 80-120 n/mm / Density of Neurons, animals with <40 n/mm / Density of Neurons, animals with >120 n/mm: 7th day; for Density of Neurons, mean ± S.E.M: normal 160 ± 9, control 69 ± 10
# Experimental: Animal: eight to twelve (n=8-12) male SHRSP bred at the Aburahi Laboratories (Shionogi) were used in a group. Animals were fed CA-1 (Nihon Clea) and tap water ad libitum.
# S-312-d was dissolved into polyethylene glycol 400 solution and intraperitoneally administered to a SHRSP at 60 min before the introduction of a global cerebral ischemia. Cerebral ischemia was then caused in each rat for 20 min and stopped to allow cerebral circulation in the same manner as the above Experiment 1. For the histological observation on the delayed neuronal death, a fixation of tissue was conducted by perfusing the animal from the left ventricle using 4% paraformaldehyde at a flow rate of 10 ml/min by means of perista pump (AC-2110, ATTA) on the 7th day from the ischemia. After the removal of brain, cerebral region containing hippocampus was embedded in paraffin, from which sliced preparations of 4 μm thick were prepared. Each cerebral preparation was stained with hematoxylin-eosin and the density of the living pyramidal neurons (n/mm) was determined by counting the number of neurons per 1 mm length of the hippocampal CAI region under a light microscope. The data were expressed as the mean ±S.E.M. For the purpose of comparison, SHRSPs with or without ischemic maneuvering were both treated with propylene glycol, in exactly the same manner as the above.
# [5] = system: cerebral release of glutamate; settings: comparison, no data shown, cited from earlier work
# [6] = oral, one hour before ultrasonic treatment
# [7] = treated group (I), 0.01 mg/kg i.p. 60 min before ischemia (20 min), n = 12
# [8] = treated group (II), 0.1 mg/kg i.p. 60 min before ischemia (20 min), n = 13
structure (smiles),measurement,setting,value
C[C@]12N[C@H](Cc3ccccc31)c1ccccc12 [MK-801],toxic effects / clinical applicability,[1],not clinically applicable because of serious toxic effects
"COC(=O)C1=C(C)Nc2scc(CC(C)C)c2[C@@H]1c1cccc([N+](=O)[O-])c1 [S-312-1, methyl (-)-(4R)-4,7-dihydro-3-isobutyl-6-methyl-4-(3-nitrophenyl)thieno[2,3-b]pyridine-5-carboxylate]","Anticonvulsive effect (maximum), at 10-80 mg/kg","DBA/2 Mouse; oral, 10-80 mg/kg, one hour before ultrasonic treatment",30%
same,anticonvulsive effect (general statement),DBA/2 Mouse; [6],less than 40%
"COC(=O)C1=C(C)Nc2scc(CC(C)C)c2C1c1cccc([N+](=O)[O-])c1 (racemic) [S-312, methyl 4,7-dihydro-3-isobutyl-6-methyl-4-(3-nitrophenyl)thieno[2,3-b]pyridine-5-carboxylate]",Ca-blocking effect on vascular smooth muscle,vascular smooth muscle,selective Ca-blocking effect on vascular smooth muscle
same,adverse reactions,"[2]; U.S. Pat. No. 4,703,051",lesser adverse reactions
same,"vasodilating, antihypertensive and coronary vasodilating effect","[2]; U.S. Pat. No. 4,703,051",potent antihypertensive and coronary vasodilating effect
same,"antihypertensive, peripheral, cerebral and coronary vasodilating actions",[2],"exhibit antihypertensive activity, as well as peripheral, cerebral, and coronary vasodilating actions"
"COC(=O)C1=C(C#N)NC(C)=C(C(=O)OC(C)C)C1c1cccc([N+](=O)[O-])c1 (stereo not shown) [nilvadipine, reference compound]",inhibition of the massive release of glutamate during BCAO,[3],only S-312-d was significantly effective; also recorded: neither nilvadipine nor nimodipine shows significant effect
COC(=O)C1=C(C)NC(C)=C(C(=O)OCCN(C)Cc2ccccc2)C1c1cccc([N+](=O)[O-])c1 (stereo not shown) [Nicardipine],"Anticonvulsive effect (maximum), at 20-80 mg/kg",DBA/2 Mouse; [6],30%
same,anticonvulsive effect (general statement),DBA/2 Mouse; [6],less than 40%
Fc1ccc(C(c2ccc(F)cc2)N2CCN(C/C=C/c3ccccc3)CC2)cc1 [Flunarizine],ED50,DBA/2 Mouse; oral,48.1 mg/kg
same,"anti-convulsant effect, in words",DBA/2 Mouse,dose-dependent anti-convulsant effect
"COCCOC(=O)C1=C(C)NC(C)=C(C(=O)OC(C)C)C1c1cccc([N+](=O)[O-])c1 (stereo not shown) [Nimodipine, reference compound]",inhibition of the massive release of glutamate during BCAO,[3],only S-312-d was significantly effective; also recorded: neither nilvadipine nor nimodipine shows significant effect
same,"Anticonvulsive effect (maximum), at 20-80 mg/kg",DBA/2 Mouse; [6],40%
same,anticonvulsive effect (general statement),DBA/2 Mouse; [6],less than 40%
"COC(=O)C1=C(C)Nc2scc(CC(C)C)c2[C@H]1c1cccc([N+](=O)[O-])c1 [S-312-d, methyl (+)-(4S)-4,7-dihydro-3-isobutyl-6-methyl-4-(3-nitrophenyl)thieno[2,3-b]pyridine-5-carboxylate]",effect on the normal resting release of glutamate,[3],not the normal resting release; also recorded: without affecting the normal resting release of glutamate; also recorded: not the normal cerebral release of glutamate
same,inhibition of the massive release of glutamate during BCAO,[3],only S-312-d was significantly effective; also recorded: inhibited the massive release of glutamate during BCAO; also recorded: inhibits specifically the massive release of glutamate during cerebral ischemia; also recorded: inhibiting specifically a massive release of cerebral glutamate from hippocampus
same,inhibition of the massive release of glutamate during BCAO,[3]; listed as S-312-2,the massive release of cerebral glutamate
same,Ca-blocking effect on vascular smooth muscle,vascular smooth muscle,selective Ca-blocking effect on vascular smooth muscle
same,"antihypertensive, peripheral, cerebral and coronary vasodilating actions",[2],"exhibit antihypertensive activity, as well as peripheral, cerebral, and coronary vasodilating actions"
same,protection of cerebral neurons against ischemic necrosis,"[4]; pretreatment i.p., Table 2",significantly effective for the protection of cerebral neurons against ischemic necrosis of cells
same,"Density of Neurons, animals with 40-80 n/mm",[4]; [7],4
same,"Density of Neurons, animals with 80-120 n/mm",[4]; [7],2
same,"Density of Neurons, animals with <40 n/mm",[4]; [7],3
same,"Density of Neurons, animals with >120 n/mm",[4]; [7],3
same,"Density of Neurons, mean ± S.E.M","[4]; treated group (I), 0.01 mg/kg i.p., n = 12, p < 0.01 vs normal group",73 ± 12 n/mm
same,"Density of Neurons, animals with 40-80 n/mm",[4]; [8],1
same,"Density of Neurons, animals with 80-120 n/mm",[4]; [8],4
same,"Density of Neurons, animals with <40 n/mm",[4]; [8],2
same,"Density of Neurons, animals with >120 n/mm",[4]; [8],6
same,"Density of Neurons, mean ± S.E.M","[4]; treated group (II), 0.1 mg/kg i.p., n = 13, p < 0.01 vs control group",114 ± 17 n/mm
same,ED50,DBA/2 Mouse; oral,17.6 mg/kg
same,"anti-convulsant effect, in words",DBA/2 Mouse,inhibits sound-induced convulsion in DBA/2 mouse; also recorded: dose-dependent anti-convulsant effect; also recorded: potent inhibitory effect on a convulsion induced by sound stimulation in DBA/2 mice
same,"anti-convulsant effect, in words",DBA/2 Mouse; listed as S-312-2,inhibit the both of a) the sound-induced convulsion
NCC(CC(=O)O)c1ccc(Cl)cc1 (stereo not shown) [Baclofen],effect on ischemic release of glutamate,[5],not the ischemic release
same,effect on normal release of glutamate,[5],inhibit the normal glutamate release
same,effect on normal release of glutamate,[5]; listed as baclofen,inhibits the normal release
